Active and inactive are the calls of the source. No cut-off for these calls is given here.
Experiments:
[1] = target: T1, Protein cereblon/Cyclin-dependent kinase 9 (Homo sapiens, UniProt P50750+Q96SW2); assay: Protac activity at CRBN/CDK9 in human MV4-11 cells assessed as CDK9 degradation at 1 uM measured after 6 hrs by Western blot analysis; format: cell-based
Target sequence in this assay (P50750 whole entry, looked up): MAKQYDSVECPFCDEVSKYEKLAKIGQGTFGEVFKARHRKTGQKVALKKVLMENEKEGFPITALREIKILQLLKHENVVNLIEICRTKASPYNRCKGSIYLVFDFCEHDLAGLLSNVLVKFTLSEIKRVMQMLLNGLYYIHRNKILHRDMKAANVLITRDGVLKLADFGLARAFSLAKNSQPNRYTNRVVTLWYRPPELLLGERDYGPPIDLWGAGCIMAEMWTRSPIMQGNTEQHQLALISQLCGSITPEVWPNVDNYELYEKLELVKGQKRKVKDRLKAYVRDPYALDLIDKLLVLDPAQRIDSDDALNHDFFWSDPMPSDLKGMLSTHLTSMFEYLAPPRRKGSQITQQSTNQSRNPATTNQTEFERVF
Target sequence in this assay (Q96SW2 whole entry, looked up): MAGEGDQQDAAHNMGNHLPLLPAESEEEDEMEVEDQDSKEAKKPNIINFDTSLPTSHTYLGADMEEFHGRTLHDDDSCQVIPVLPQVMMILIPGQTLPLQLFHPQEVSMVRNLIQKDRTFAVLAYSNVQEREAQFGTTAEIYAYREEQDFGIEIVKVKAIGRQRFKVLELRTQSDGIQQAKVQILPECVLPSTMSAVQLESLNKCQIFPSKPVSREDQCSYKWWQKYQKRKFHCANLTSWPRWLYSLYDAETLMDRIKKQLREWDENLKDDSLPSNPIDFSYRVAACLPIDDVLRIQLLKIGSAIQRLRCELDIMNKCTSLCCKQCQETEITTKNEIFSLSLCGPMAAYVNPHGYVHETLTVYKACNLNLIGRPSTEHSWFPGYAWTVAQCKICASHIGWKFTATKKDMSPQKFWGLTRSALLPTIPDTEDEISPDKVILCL

[2] = target: T1, Protein cereblon/Cyclin-dependent kinase 9; assay: Protac activity at CRBN/CDK9 in human MV4-11 cells assessed as reduction in MCL-1 level at 1 uM measured after 6 hrs by Western blot analysis; format: cell-based
Target sequence in this assay (P50750 whole entry, looked up): as the sequence (P50750 whole entry, looked up) above
Target sequence in this assay (Q96SW2 whole entry, looked up): as the sequence (Q96SW2 whole entry, looked up) above

[3] = target: T1, Protein cereblon/Cyclin-dependent kinase 9; assay: Protac activity at CRBN/CDK9 in human MV4-11 cells assessed as protein degradation at 1 uM treated for 6 hrs followed by compound washout measured after 24 hrs by Western blot analysis; format: cell-based
Target sequence in this assay (P50750 whole entry, looked up): as the sequence (P50750 whole entry, looked up) above
Target sequence in this assay (Q96SW2 whole entry, looked up): as the sequence (Q96SW2 whole entry, looked up) above

[4] = target: T1, Protein cereblon/Cyclin-dependent kinase 9; assay: Protac activity at CRBN/CDK9 in human MV4-11 cells assessed as protein degradation at 1 uM treated for 6 hrs followed by compound washout measured after 48 hrs by Western blot analysis; format: cell-based
Target sequence in this assay (P50750 whole entry, looked up): as the sequence (P50750 whole entry, looked up) above
Target sequence in this assay (Q96SW2 whole entry, looked up): as the sequence (Q96SW2 whole entry, looked up) above

[5] = target: T1, Protein cereblon/Cyclin-dependent kinase 9; assay: Protac activity at CRBN/CDK9 in human MV4-11 cells assessed as protein degradation at 1 uM measured after 6 hrs in presence of pomalidomide by Western blot analysis; format: cell-based
Target sequence in this assay (P50750 whole entry, looked up): as the sequence (P50750 whole entry, looked up) above
Target sequence in this assay (Q96SW2 whole entry, looked up): as the sequence (Q96SW2 whole entry, looked up) above

[6] = target: T1, Protein cereblon/Cyclin-dependent kinase 9; assay: Protac activity at CRBN/CDK9 in human MV4-11 cells assessed as protein degradation at 1 uM measured after 6 hrs in presence of […] by Western blot analysis; format: cell-based
Target sequence in this assay (P50750 whole entry, looked up): as the sequence (P50750 whole entry, looked up) above
Target sequence in this assay (Q96SW2 whole entry, looked up): as the sequence (Q96SW2 whole entry, looked up) above

[7] = target: T1, Protein cereblon/Cyclin-dependent kinase 9; assay: Protac activity at CRBN/CDK9 in human MV4-11 cells assessed as protein degradation at 1 uM measured after 6 hrs in presence of bortezomib by Western blot analysis; format: cell-based
[8] = target: T1, Protein cereblon/Cyclin-dependent kinase 9; assay: Protac activity at CRBN/CDK9 in human MV4-11 cells assessed as protein degradation at 1 uM measured after 6 hrs in presence of carfilzomib by Western blot analysis; format: cell-based
MOLM-13 [9] = assay: Anticancer activity against human MOLM-13 cells assessed as cell growth inhibition measured after 48 hrs by MTS assay; format: functional, cell-based; settings: MOLM-13, 48 h
[10] = target: T1, Protein cereblon/Cyclin-dependent kinase 9; assay: Protac activity at CRBN/CDK9 isoform 42 in human MOLM-13 cells assessed assessed as protein degradation measured after 6 hrs by Western blot analysis; format: cell-based
Target sequence in this assay (P50750 whole entry): as the sequence (P50750 whole entry, looked up) above
Target sequence in this assay (Q96SW2 whole entry): as the sequence (Q96SW2 whole entry, looked up) above

[11] = target: T1, Protein cereblon/Cyclin-dependent kinase 9; assay: Protac activity at CRBN/CDK9 isoform 55 in human MOLM-13 cells assessed assessed as protein degradation measured after 6 hrs by Western blot analysis; format: cell-based
Target sequence in this assay (P50750 whole entry): as the sequence (P50750 whole entry, looked up) above
Target sequence in this assay (Q96SW2 whole entry): as the sequence (Q96SW2 whole entry, looked up) above

[12] = target: T1, Protein cereblon/Cyclin-dependent kinase 9; assay: Protac activity at CRBN/CDK9 isoform 42 in human MOLM-13 cells assessed assessed as protein degradation measured after 6 hrs by Western blot analysis relative to control; format: cell-based
[13] = target: T1, Protein cereblon/Cyclin-dependent kinase 9; assay: Protac activity at CRBN/CDK9 isoform 55 in human MOLM-13 cells assessed assessed as protein degradation measured after 6 hrs by Western blot analysis relative to control; format: cell-based
[14] = target: T1, Protein cereblon/Cyclin-dependent kinase 9; assay: Protac activity at CRBN/CDK9 in human MV4-11 cells assessed as reduction in MCL-1 level upto 5 uM measured after 6 hrs by Western blot analysis; format: cell-based
MV4-11 = assay: Anticancer activity against human MV4-11 cells assessed as cell growth inhibition for 6 hrs followed by compound washout measured after 24 hrs by Annexin V/Propidium iodide staining based flow cytometric analysis; format: functional
[15] = target: Cyclin-dependent kinase 9 (Homo sapiens) (UniProt P50750); assay: Induction of CDK9 degradation in human MOLM-13 cells assessed as fold change measured after 6 hrs by proteomics analysis; format: cell-based
T-lymphocyte = assay: Induction of CDK2 degradation in T-lymphocyte (unknown origin); format: cell-based
B-lymphocyte = assay: Induction of CDK2 degradation in B-lymphocyte (unknown origin); format: cell-based
MOLM-13 [16] = assay: Effect on ikaros expression in human MOLM-13 cells upto 5 uM measured after 6 hrs by Western blot analysis; format: functional, cell-based
MOLM-13 [17] = assay: Effect on aiolos expression in human MOLM-13 cells upto 5 uM measured after 6 hrs by Western blot analysis; format: functional, cell-based
[18] = target: T1, Protein cereblon/Cyclin-dependent kinase 9; assay: Protac activity at CRBN/CDK9 in human MV4-11 cells assessed as CDK9 degradation at 0.01 to 5 uM measured after 6 hrs by Western blot analysis; format: cell-based; settings: dose 0.01-5 µM
[19] = target: T1, Protein cereblon/Cyclin-dependent kinase 9; assay: Protac activity at CRBN/CDK9 in human MV4-11 cells assessed as CDK9 degradation at 5 uM measured after 6 hrs by Western blot analysis; format: cell-based
[20] = target: T1, Protein cereblon/Cyclin-dependent kinase 9; assay: Protac activity at CRBN/CDK9 in human MV4-11 cells assessed as reduction in c-Myc level upto 5 uM measured after 6 hrs by Western blot analysis; format: cell-based
MOLM-13 [21] = assay: Effect on ikaros expression in human MOLM-13 cells at 0.1 uM measured after 6 hrs by Western blot analysis; format: functional, cell-based

Sequence of Cyclin-dependent kinase 9 (Homo sapiens) (P50750 whole entry): as the sequence (P50750 whole entry, looked up) above

SMILES: O=C(COc1cccc2c1C(=O)N(C1CCC(=O)NC1=O)C2=O)NCCCCCCCCCCC(=O)N1CCC(NC(=O)c2n[nH]cc2NC(=O)c2c(Cl)cccc2Cl)CC1 (stereo not given)
- Activity [1]: Active
- Activity [2]: Active
- Activity [3]: Active
- Activity [4]: inactive
- Activity [5]: inactive
- Activity [6]: inactive
- Activity [7]: inactive
- Activity [8]: inactive
- IC50 (MOLM-13 [9]): 0.04 µM
- DC50 [10]: 0.1 µM
- DC50 [11]: 0.14 µM
- Emax [12]: 93.1%
- Emax [13]: 91.6%
- Activity [14]: Active
- EC50 (MV4-11): 0.4 µM
- fold change (FC) [15]: > 2
- Activity (T-lymphocyte): Active
- Activity (B-lymphocyte): Active
- Activity (MOLM-13 [16]): inactive
- Activity (MOLM-13 [17]): inactive

SMILES: O=C1CCC(N2C(=O)c3cccc(NCC(=O)N4CCC(NC(=O)c5n[nH]cc5NC(=O)c5c(Cl)cccc5Cl)CC4)c3C2=O)C(=O)N1 (stereo not given)
- Activity [1]: inactive
- Activity [2]: inactive
- IC50 (MOLM-13 [9]): 774 µM

SMILES: O=C(CCCCCCCCCCNC(=O)COc1cccc2c1C(=O)N(C1CCC(=O)NC1=O)C2=O)NCCCCCCCCCCC(=O)N1CCC(NC(=O)c2n[nH]cc2NC(=O)c2c(Cl)cccc2Cl)CC1 (stereo not given)
- IC50 (MOLM-13 [9]): 22.2 µM

SMILES: O=C(CCCCNC(=O)CNc1cccc2c1C(=O)N(C1CCC(=O)NC1=O)C2=O)NCCCCC(=O)N1CCC(NC(=O)c2n[nH]cc2NC(=O)c2c(Cl)cccc2Cl)CC1 (stereo not given)
- Activity [18]: inactive
- IC50 (MOLM-13 [9]): 29.7 µM

SMILES: O=C(CCCCCCCCCCNC(=O)CNc1cccc2c1C(=O)N(C1CCC(=O)NC1=O)C2=O)NCCCCCCCCCCC(=O)N1CCC(NC(=O)c2n[nH]cc2NC(=O)c2c(Cl)cccc2Cl)CC1 (stereo not given)
- IC50 (MOLM-13 [9]): 28.4 µM

SMILES: O=C(CCCCCCCCCCCNC(=O)COc1cccc2c1C(=O)N(C1CCC(=O)NC1=O)C2=O)NCCCCCCCCCCCC(=O)N1CCC(NC(=O)c2n[nH]cc2NC(=O)c2c(Cl)cccc2Cl)CC1 (stereo not given)
- IC50 (MOLM-13 [9]): 83.2 µM

SMILES: O=C(COc1cccc2c1C(=O)N(C1CCC(=O)NC1=O)C2=O)NCCOCCOCCOCC(=O)N1CCC(NC(=O)c2n[nH]cc2NC(=O)c2c(Cl)cccc2Cl)CC1 (stereo not given)
- IC50 (MOLM-13 [9]): 92.2 µM

SMILES: O=C(COc1cccc2c1C(=O)N(C1CCC(=O)NC1=O)C2=O)NCCCCCCCC(=O)N1CCC(NC(=O)c2n[nH]cc2NC(=O)c2c(Cl)cccc2Cl)CC1 (stereo not given)
- Activity [1]: Active
- Activity [2]: Active
- IC50 (MOLM-13 [9]): 0.21 µM

SMILES: O=C1CCC(N2C(=O)c3cccc(OCC(=O)N4CCC(NC(=O)c5n[nH]cc5NC(=O)c5c(Cl)cccc5Cl)CC4)c3C2=O)C(=O)N1 (stereo not given)
- Activity [1]: inactive
- IC50 (MOLM-13 [9]): 6.62 µM

SMILES: O=C(CCCCNC(=O)COc1cccc2c1C(=O)N(C1CCC(=O)NC1=O)C2=O)NCCCCC(=O)N1CCC(NC(=O)c2n[nH]cc2NC(=O)c2c(Cl)cccc2Cl)CC1 (stereo not given)
- Activity [18]: inactive
- IC50 (MOLM-13 [9]): 47.4 µM

SMILES: O=C(CCCCCCCNC(=O)COc1cccc2c1C(=O)N(C1CCC(=O)NC1=O)C2=O)NCCCCCCCC(=O)N1CCC(NC(=O)c2n[nH]cc2NC(=O)c2c(Cl)cccc2Cl)CC1 (stereo not given)
- IC50 (MOLM-13 [9]): 2.39 µM

SMILES: O=C(CCCCCCNC(=O)CNc1cccc2c1C(=O)N(C1CCC(=O)NC1=O)C2=O)NCCCCCCC(=O)N1CCC(NC(=O)c2n[nH]cc2NC(=O)c2c(Cl)cccc2Cl)CC1 (stereo not given)
- IC50 (MOLM-13 [9]): 6.96 µM

SMILES: O=C(CCNC(=O)CNc1cccc2c1C(=O)N(C1CCC(=O)NC1=O)C2=O)NCCC(=O)NCCC(=O)N1CCC(NC(=O)c2n[nH]cc2NC(=O)c2c(Cl)cccc2Cl)CC1 (stereo not given)
- Activity [19]: inactive

SMILES: O=C(COc1cccc2c1C(=O)N(C1CCC(=O)NC1=O)C2=O)NCCCCC(=O)N1CCC(NC(=O)c2n[nH]cc2NC(=O)c2c(Cl)cccc2Cl)CC1 (stereo not given)
- IC50 (MOLM-13 [9]): 43.6 µM

SMILES: O=C(COc1cccc2c1C(=O)N(C1CCC(=O)NC1=O)C2=O)NCCCCCC(=O)N1CCC(NC(=O)c2n[nH]cc2NC(=O)c2c(Cl)cccc2Cl)CC1 (stereo not given)
- IC50 (MOLM-13 [9]): 2.7 µM

SMILES: O=C(CCCCCCCCNC(=O)CNc1cccc2c1C(=O)N(C1CCC(=O)NC1=O)C2=O)NCCCCCCCCC(=O)N1CCC(NC(=O)c2n[nH]cc2NC(=O)c2c(Cl)cccc2Cl)CC1 (stereo not given)
- IC50 (MOLM-13 [9]): 1.4 µM

SMILES: O=C(CCCCCCCCCNC(=O)CNc1cccc2c1C(=O)N(C1CCC(=O)NC1=O)C2=O)NCCCCCCCCCC(=O)N1CCC(NC(=O)c2n[nH]cc2NC(=O)c2c(Cl)cccc2Cl)CC1 (stereo not given)
- IC50 (MOLM-13 [9]): 9.43 µM

SMILES: O=C(NC1CCNCC1)c1n[nH]cc1NC(=O)c1c(Cl)cccc1Cl
- EC50 (MV4-11): 1.1 µM

SMILES: O=C(CNc1cccc2c1C(=O)N(C1CCC(=O)NC1=O)C2=O)NCCCCCCCCCCC(=O)N1CCC(NC(=O)c2n[nH]cc2NC(=O)c2c(Cl)cccc2Cl)CC1 (stereo not given)
- Activity [1]: Active
- IC50 (MOLM-13 [9]): 42.1 µM
- DC50 [10]: 0.03 µM
- DC50 [11]: 0.05 µM
- Emax [12]: 93.1%
- Emax [13]: 91.6%
- Activity [20]: Active
- EC50 (MV4-11): 0.2 µM
- Activity (MOLM-13 [21]): inactive

SMILES: O=C(CCCCCNC(=O)COc1cccc2c1C(=O)N(C1CCC(=O)NC1=O)C2=O)NCCCCCC(=O)N1CCC(NC(=O)c2n[nH]cc2NC(=O)c2c(Cl)cccc2Cl)CC1 (stereo not given)
- IC50 (MOLM-13 [9]): 11.7 µM

SMILES: O=C(CCCCCCCCNC(=O)COc1cccc2c1C(=O)N(C1CCC(=O)NC1=O)C2=O)NCCCCCCCCC(=O)N1CCC(NC(=O)c2n[nH]cc2NC(=O)c2c(Cl)cccc2Cl)CC1 (stereo not given)
- IC50 (MOLM-13 [9]): 0.82 µM

SMILES: O=C(CCCCCCCCCNC(=O)COc1cccc2c1C(=O)N(C1CCC(=O)NC1=O)C2=O)NCCCCCCCCCC(=O)N1CCC(NC(=O)c2n[nH]cc2NC(=O)c2c(Cl)cccc2Cl)CC1 (stereo not given)
- IC50 (MOLM-13 [9]): 2.22 µM

SMILES: O=C(CCCCCNC(=O)CNc1cccc2c1C(=O)N(C1CCC(=O)NC1=O)C2=O)NCCCCCC(=O)N1CCC(NC(=O)c2n[nH]cc2NC(=O)c2c(Cl)cccc2Cl)CC1 (stereo not given)
- IC50 (MOLM-13 [9]): 13 µM

SMILES: O=C(COc1cccc2c1C(=O)N(C1CCC(=O)NC1=O)C2=O)NCCCCCCCCCCCC(=O)N1CCC(NC(=O)c2n[nH]cc2NC(=O)c2c(Cl)cccc2Cl)CC1 (stereo not given)
- Activity [1]: Active
- Activity [2]: Active
- IC50 (MOLM-13 [9]): 0.12 µM

SMILES: O=C(CCCCCCNC(=O)COc1cccc2c1C(=O)N(C1CCC(=O)NC1=O)C2=O)NCCCCCCC(=O)N1CCC(NC(=O)c2n[nH]cc2NC(=O)c2c(Cl)cccc2Cl)CC1 (stereo not given)
- IC50 (MOLM-13 [9]): 6.27 µM

SMILES: O=C(COc1cccc2c1C(=O)N(C1CCC(=O)NC1=O)C2=O)NCCC(=O)N1CCC(NC(=O)c2n[nH]cc2NC(=O)c2c(Cl)cccc2Cl)CC1 (stereo not given)
- Activity [1]: inactive
- IC50 (MOLM-13 [9]): 39.7 µM

SMILES: O=C(COc1cccc2c1C(=O)N(C1CCC(=O)NC1=O)C2=O)NCCC(=O)Nc1cccc(C(=O)NCCC(=O)N2CCC(NC(=O)c3n[nH]cc3NC(=O)c3c(Cl)cccc3Cl)CC2)c1 (stereo not given)
- Activity [19]: inactive

SMILES: O=C(CCCCCCCNC(=O)CNc1cccc2c1C(=O)N(C1CCC(=O)NC1=O)C2=O)NCCCCCCCC(=O)N1CCC(NC(=O)c2n[nH]cc2NC(=O)c2c(Cl)cccc2Cl)CC1 (stereo not given)
- IC50 (MOLM-13 [9]): 3.01 µM
